The structures appear in SMILES notation. The source made the active and inactive calls. How the calls were made is not given here.

The series has as its system CCRIS mutagenicity, Ames/micronucleus/aberration tests. Kind of series: CCRIS mutagenicity studies.
The mark [1] stands for this setting: Test System: AMES SALMONELLA TYPHIMURIUM, Strain/Indicator: TA98, Metabolic Activation: NONE, Method: STANDARD PLATE.
The mark [2] stands for this setting: Test System: AMES SALMONELLA TYPHIMURIUM, Strain/Indicator: TA100, Metabolic Activation: NONE, Method: STANDARD PLATE.
[3] abbreviates: Test System: AMES SALMONELLA TYPHIMURIUM, Strain/Indicator: TA100, Metabolic Activation: RAT, LIVER, S-9, AROCLOR 1254, Method: STANDARD PLATE.
The mark [4] stands for this setting: Test System: AMES SALMONELLA TYPHIMURIUM, Strain/Indicator: TA1535, Metabolic Activation: NONE, Method: STANDARD PLATE.
The mark [5] stands for this setting: Test System: AMES SALMONELLA TYPHIMURIUM, Strain/Indicator: TA1535, Metabolic Activation: RAT, LIVER, S-9, AROCLOR 1254, Method: STANDARD PLATE.
Setting [6] is: Test System: AMES SALMONELLA TYPHIMURIUM, Strain/Indicator: TA1537, Metabolic Activation: NONE, Method: STANDARD PLATE.
The mark [7] stands for this setting: Test System: AMES SALMONELLA TYPHIMURIUM, Strain/Indicator: TA98, Metabolic Activation: HAMSTER, LIVER, S-9, AROCLOR 1254 (10%), Method: PREINCUBATION
The mark [8] stands for this setting: Test System: AMES SALMONELLA TYPHIMURIUM, Strain/Indicator: TA98, Metabolic Activation: NONE, Method: PREINCUBATION
Where [9] appears, read: Test System: AMES SALMONELLA TYPHIMURIUM, Strain/Indicator: TA98, Metabolic Activation: RAT, LIVER, S-9, AROCLOR 1254 (10%), Method: PREINCUBATION
The mark [10] stands for this setting: Test System: AMES SALMONELLA TYPHIMURIUM, Strain/Indicator: TA100, Metabolic Activation: HAMSTER, LIVER, S-9, AROCLOR 1254 (10%), Method: PREINCUBATION
[11] abbreviates: Test System: AMES SALMONELLA TYPHIMURIUM, Strain/Indicator: TA100, Metabolic Activation: NONE, Method: PREINCUBATION
The mark [12] stands for this setting: Test System: AMES SALMONELLA TYPHIMURIUM, Strain/Indicator: TA100, Metabolic Activation: RAT, LIVER, S-9, AROCLOR 1254 (10%), Method: PREINCUBATION
Setting [13] is: Test System: AMES SALMONELLA TYPHIMURIUM, Strain/Indicator: TA1535, Metabolic Activation: HAMSTER, LIVER, S-9, AROCLOR 1254 (10%), Method: PREINCUBATION
Setting [14] is: Test System: AMES SALMONELLA TYPHIMURIUM, Strain/Indicator: TA1535, Metabolic Activation: NONE, Method: PREINCUBATION
Where [15] appears, read: Test System: AMES SALMONELLA TYPHIMURIUM, Strain/Indicator: TA1535, Metabolic Activation: RAT, LIVER, S-9, AROCLOR 1254 (10%), Method: PREINCUBATION

Consider `C/C=C\c1ccc(OC)cc1OC`, for which the mutagenic call is, setting by setting: (Test System: AMES SALMONELLA TYPHIMURIUM, Strain/Indicator: TA97, Metabolic Activation: NONE, Method: STANDARD PLATE) “inactive; negative”; (Test System: AMES SALMONELLA TYPHIMURIUM, Strain/Indicator: TA97, Metabolic Activation: RAT, LIVER, S-9, AROCLOR 1254, Method: STANDARD PLATE) “inactive; negative”; under setting [1], “inactive; negative”; (Test System: AMES SALMONELLA TYPHIMURIUM, Strain/Indicator: TA98, Metabolic Activation: RAT, LIVER, S-9, AROCLOR 1254, Method: STANDARD PLATE) “inactive; negative”; under setting [2], “inactive; negative”; under setting [3], “inactive; negative”. The mutagenic call by setting is: under setting [4], “inactive; negative”; under setting [5], “inactive; negative”; under setting [6], “inactive; negative”; (Test System: AMES SALMONELLA TYPHIMURIUM, Strain/Indicator: TA1537, Metabolic Activation: RAT, LIVER, S-9, AROCLOR 1254, Method: STANDARD PLATE) “inactive; negative”; (Test System: AMES SALMONELLA TYPHIMURIUM, Strain/Indicator: TA1538, Metabolic Activation: NONE, Method: STANDARD PLATE) “inactive; negative”; (Test System: AMES SALMONELLA TYPHIMURIUM, Strain/Indicator: TA1538, Metabolic Activation: RAT, LIVER, S-9, AROCLOR 1254, Method: STANDARD PLATE) “inactive; negative”.
On to `C(COCC1CO1)OCC1CO1` (stereo unspecified), for which the mutagenic call is “active; positive” under setting [2] and “active; positive” under setting [4].
In the case of `CCCC(C)(COC(N)=O)COC(=O)NC(C)C` (stereo unspecified), the mutagenic call runs as follows: under setting [7], “inactive; negative”; under setting [8], “inactive; negative”; under setting [9], “inactive; negative”; under setting [10], “inactive; negative”; under setting [11], “inactive; negative”; under setting [12], “inactive; negative”. The mutagenic call by setting is: under setting [13], “inactive; negative”; under setting [14], “inactive; negative”; under setting [15], “inactive; negative”; (Test System: AMES SALMONELLA TYPHIMURIUM, Strain/Indicator: TA1537, Metabolic Activation: HAMSTER, LIVER, S-9, AROCLOR 1254 (10%), Method: PREINCUBATION) “inactive; negative”; (Test System: AMES SALMONELLA TYPHIMURIUM, Strain/Indicator: TA1537, Metabolic Activation: NONE, Method: PREINCUBATION) “inactive; negative”; (Test System: AMES SALMONELLA TYPHIMURIUM, Strain/Indicator: TA1537, Metabolic Activation: RAT, LIVER, S-9, AROCLOR 1254 (10%), Method: PREINCUBATION) “inactive; negative”.
With `O=C/C(Cl)=C(/Cl)C(=O)O`, the mutagenic call reads like this: under setting [4], “active; positive”; (Test System: CHINESE HAMSTER OVARY, Strain/Indicator: CHO-KTL3 (HPRT)/6-THIOGUANINE, Metabolic Activation: NONE) “active; positive”.
`O=[N+]([O-])c1ccccc1S(=O)(=O)O`: the mutagenic call runs as follows: under setting [8], “inactive; negative”; (Test System: AMES SALMONELLA TYPHIMURIUM, Strain/Indicator: TA98, Metabolic Activation: RAT, LIVER, S-9, KANECHLOR 500, Method: PREINCUBATION) “inactive; negative”; under setting [11], “inactive; negative”; (Test System: AMES SALMONELLA TYPHIMURIUM, Strain/Indicator: TA100, Metabolic Activation: RAT, LIVER, S-9, KANECHLOR 500, Method: PREINCUBATION) “inactive; negative”.
Consider `Oc1ccc2ccccc2c1N=Nc1ccccc1`, for which the mutagenic call by setting is: (End Point: IN VITRO CHROMOSOMAL ABERRATIONS, Test System: CHO CELLS, Metabolic Activation: NONE) “inactive; negative”; (End Point: IN VITRO CHROMOSOMAL ABERRATIONS, Test System: CHO CELLS, Metabolic Activation: RAT, LIVER, S-9, AROCLOR 1254) “inactive; negative”; (Test System: AMES SALMONELLA TYPHIMURIUM, Strain/Indicator: TA97, Metabolic Activation: HAMSTER, LIVER, S-9, AROCLOR 1254 (10%), Method: PREINCUBATION) “inactive; negative”; (Test System: AMES SALMONELLA TYPHIMURIUM, Strain/Indicator: TA97, Metabolic Activation: NONE, Method: PREINCUBATION) “inactive; negative”; (Test System: AMES SALMONELLA TYPHIMURIUM, Strain/Indicator: TA97, Metabolic Activation: RAT, LIVER, S-9, AROCLOR 1254 (10%), Method: PREINCUBATION) “active; positive”; under setting [7], “inactive; negative”. The mutagenic call under setting [8] was “inactive; negative”; the mutagenic call (Test System: AMES SALMONELLA TYPHIMURIUM, Strain/Indicator: TA98, Metabolic Activation: RAT, BLADDER, S-9, PCB, Method: FLUCTUATION TEST) is “inactive; negative”; the mutagenic call under setting [9] is “active; positive”; the mutagenic call under setting [10] is “inactive; negative”; the mutagenic call under setting [11] was “inactive; negative”; the mutagenic call (Test System: AMES SALMONELLA TYPHIMURIUM, Strain/Indicator: TA100, Metabolic Activation: RAT, BLADDER, S-9, PCB, Method: FLUCTUATION TEST) was “inactive; negative”. Also, the mutagenic call is, setting by setting: under setting [12], “inactive; negative”; under setting [13], “inactive; negative”; under setting [14], “inactive; negative”; under setting [15], “inactive; negative”; (Test System: AMES SALMONELLA TYPHIMURIUM, Strain/Indicator: TA1538, Metabolic Activation: HAMSTER, LIVER, S-9, AROCLOR 1254, Method: STANDARD PLATE) “active; positive”.
In the case of `O=[N+]([O-])c1ccc(-c2csc(Cl)n2)o1`, the mutagenic call by setting is: (Test System: E. COLI, Strain/Indicator: WP2, Metabolic Activation: NONE, Method: SPOT) “active; positive”; (Test System: E. COLI, Strain/Indicator: WP2 UVRA, Metabolic Activation: NONE, Method: SPOT) “active; positive”.
In the case of `N[C@@H](Cc1ccc(N(CCCl)CCCl)cc1)C(=O)O`, the mutagenic call (End Point: In vivo chromosomal aberrations, Test System: Bone marrow cells, Species: Mouse, Strain/Sex: C57B1/6 / Female (base p53+/-), Route: Oral (gavage)) was “active; positive”; the mutagenic call (End Point: In vivo chromosomal aberrations, Test System: Splenocytes, Species: Mouse, Strain/Sex: C57B1/6 / Female (base p 53+/-), Route: Oral (gavage)) is “active; positive”; the mutagenic call under setting [1] was “inactive; negative”; the mutagenic call (Test System: AMES SALMONELLA TYPHIMURIUM, Strain/Indicator: TA98, Metabolic Activation: RAT, LIVER, S-9, AROCLOR 1254 (30%), Method: PREINCUBATION) is “inactive; negative”; the mutagenic call (Test System: AMES SALMONELLA TYPHIMURIUM, Strain/Indicator: TA100, Metabolic Activation: HAMSTER, LIVER, S-9, AROCLOR 1254 (30%), Method: PREINCUBATION) was “active; positive”; the mutagenic call under setting [11] is “active; positive”. Moreover, the mutagenic call runs as follows: under setting [2], “active; positive”; (Test System: AMES SALMONELLA TYPHIMURIUM, Strain/Indicator: TA100, Metabolic Activation: RAT, LIVER, S-9, AROCLOR 1254 (30%), Method: PREINCUBATION) “active; positive”; under setting [3], “active; positive”; under setting [4], “active; positive”; under setting [5], “active; positive”; under setting [6], “inactive; negative”. For the same compound, the mutagenic call (Test System: E. COLI, Strain/Indicator: WP2 (HCR), Metabolic Activation: S-9, Method: STANDARD PLATE) is “inactive; negative”.
Turning to `ClCc1ccc2ccc3cc4ccccc4c4ccc1c2c34`, the mutagenic call by setting is: under setting [1], “inactive; negative”; under setting [2], “inactive; negative”.

For the origin of these results see PubChem BioAssay AID1259407 (Chemical Carcinogenesis Research Information System (CCRIS), 2018).
